Source: patent US7739055B2, “Methods and systems for generating and evaluating peptides” (priority 2005, dated 2010)
Values after ≈ are worked out from the molar mass of the structure shown. Read-outs that look alike come from different tables or passages of the source. One block for each molecule: values may come before it. Where a SMILES comes first, the peptide text is derived from it.

Tests used:
[1] = first concentration that prohibits growth by OD at 24 hours, Table 1

Molecule: CC(C)[C@H](N)C(=O)N[C@H](C(=O)N[C@@H](Cc1ccccc1)C(=O)N[C@@H](CCCNC(=N)N)C(=O)N[C@H](C(=O)N[C@@H](C)C(=O)N[C@@H](CO)C(=O)N[C@@H](CCCCN)C(=O)N[C@H](C(=O)N[C@@H](Cc1ccccc1)C(=O)N1CCC[C@H]1C(=O)N[C@@H](C)C(=O)N[C@H](C(=O)N[C@@H](Cc1ccc(O)cc1)C(=O)N[C@@H](CS)C(=O)N[C@H](C(=O)N[C@H](C(=O)N[C@@H](CO)C(=O)N[C@@H](CCCCN)C(=O)N[C@@H](CCCCN)C(=O)O)C(C)C)[C@@H](C)O)C(C)C)C(C)C)C(C)C)C(C)C [Peptide 2] (H-VVFRVASKVFPAVYCTVSKK-OH; N-terminus and C-terminus assumed)
MIC B. cereus (B. cereus; [1]): + (MIC greater than 256 ug/mL)
MIC E. coli (Escherichia coli; 24 h): 128 µg/mL (≈ 57.4 µM)

Molecule: CC[C@H](C)[C@H](NC(=O)[C@H](CC(=O)O)NC(=O)[C@H](CCCCN)NC(=O)[C@@H](NC(=O)[C@H](CC(C)C)NC(=O)[C@H](CO)NC(=O)[C@H](CCSC)NC(=O)[C@H](CC(C)C)NC(=O)CN)C(C)C)C(=O)N[C@@H](C)C(=O)N[C@@H](CCCCN)C(=O)N[C@@H](CC(C)C)C(=O)N[C@@H](C)C(=O)N[C@@H](C)C(=O)N[C@@H](CCCCN)C(=O)N[C@@H](CCC(N)=O)C(=O)NCC(=O)N[C@@H](C)C(=O)N[C@@H](CCCCN)C(=O)N[C@@H](CCC(N)=O)C(=O)O [Peptide 9] (H-GLMSLVKDIAKLAAKQGAKQ-OH; N-terminus and C-terminus assumed)
MIC B. cereus (B. cereus; [1]): + (MIC greater than 256 ug/mL)
MIC E. coli (Escherichia coli; 24 h): 256 µg/mL (≈ 124 µM)

Molecule: CC[C@H](C)[C@H](NC(=O)[C@@H](NC(=O)[C@H](CS)NC(=O)[C@H](Cc1ccc(O)cc1)NC(=O)[C@@H](NC(=O)[C@H](C)NC(=O)[C@@H]1CCCN1C(=O)[C@H](Cc1ccccc1)NC(=O)[C@@H](NC(=O)[C@H](CCCCN)NC(=O)[C@H](CO)NC(=O)[C@H](C)NC(=O)[C@H](CC(C)C)NC(=O)[C@H](CCCCN)NC(=O)CNC(=O)[C@H](CC(C)C)NC(=O)[C@H](C)N)C(C)C)C(C)C)[C@@H](C)O)C(=O)N[C@@H](CO)C(=O)N[C@@H](CCCNC(=N)N)C(=O)N[C@@H](CCCCN)C(=O)O [Peptide 23] (H-ALGKLASKVFPAVYCTISRK-OH; N-terminus and C-terminus assumed)
MIC B. cereus (B. cereus; [1]): + (MIC greater than 256 ug/mL)
MIC E. coli (Escherichia coli; 24 h): 128 µg/mL (≈ 59.5 µM)

Molecule: CC[C@H](C)[C@H](NC(=O)[C@H](Cc1ccccc1)NC(=O)CN)C(=O)NCC(=O)N[C@@H](CCCCN)C(=O)N[C@@H](CC(C)C)C(=O)N[C@@H](C)C(=O)N[C@@H](CO)C(=O)N[C@@H](CCCCN)C(=O)N[C@H](C(=O)N[C@H](C(=O)N1CCC[C@H]1C(=O)N[C@@H](CO)C(=O)N[C@H](C(=O)N[C@@H](Cc1ccc(O)cc1)C(=O)N[C@@H](CS)C(=O)N[C@@H](CCCCN)C(=O)N[C@H](C(=O)N[C@H](C(=O)NCC(=O)O)[C@@H](C)O)C(C)C)C(C)C)C(C)C)C(C)C [Peptide 24] (H-GFIGKLASKVVPSVYCKVTG-OH; N-terminus and C-terminus assumed)
MIC B. cereus (B. cereus; [1]): + (MIC greater than 256 ug/mL)
MIC E. coli (Escherichia coli; 24 h): 128 µg/mL (≈ 62.3 µM)

Molecule: CC[C@H](C)[C@H](NC(=O)[C@H](CCCCN)NC(=O)[C@H](Cc1ccccc1)NC(=O)[C@@H](NC(=O)[C@H](C)NC(=O)[C@@H]1CCCN1)C(C)C)C(=O)N[C@@H](C)C(=O)N[C@@H](CO)C(=O)N[C@@H](CCCCN)C(=O)N[C@H](C(=O)N[C@H](C(=O)N1CCC[C@H]1C(=O)N[C@@H](CO)C(=O)N[C@H](C(=O)N[C@@H](Cc1ccc(O)cc1)C(=O)N[C@@H](CS)C(=O)N[C@@H](CCCCN)C(=O)N[C@H](C(=O)N[C@@H](CO)C(=O)N[C@@H](CCCNC(=N)N)C(=O)O)C(C)C)C(C)C)C(C)C)C(C)C [Peptide 29] (H-PAVFKIASKVVPSVYCKVSR-OH; N-terminus and C-terminus assumed)
MIC B. cereus (B. cereus; [1]): + (MIC greater than 256 ug/mL)
MIC E. coli (Escherichia coli; 24 h): 128 µg/mL (≈ 58.8 µM)

Molecule: CC(C)C[C@H](NC(=O)CNC(=O)[C@H](Cc1ccccc1)NC(=O)[C@H](CC(C)C)NC(=O)[C@H](C)NC(=O)CN)C(=O)N[C@@H](C)C(=O)N[C@@H](CO)C(=O)N[C@@H](CCCCN)C(=O)N[C@H](C(=O)N[C@@H](Cc1ccccc1)C(=O)N1CCC[C@H]1C(=O)N[C@@H](C)C(=O)N[C@H](C(=O)N[C@@H](Cc1ccccc1)C(=O)NCC(=O)N[C@@H](C)C(=O)N[C@@H](Cc1ccccc1)C(=O)N[C@@H](CCCCN)C(=O)N[C@@H](CCCCN)C(=O)O)C(C)C)C(C)C [Peptide 30] (H-GALFGLASKVFPAVFGAFKK-OH; N-terminus and C-terminus assumed)
MIC B. cereus (B. cereus; [1]): + (MIC greater than 256 ug/mL)
MIC E. coli (Escherichia coli; 24 h): 256 µg/mL (≈ 125 µM)

Molecule: CC[C@H](C)[C@H](NC(=O)[C@@H](NC(=O)[C@H](CCCCN)NC(=O)[C@H](C)NC(=O)[C@H](CC(C)C)NC(=O)[C@H](CCCCN)NC(=O)[C@H](CCCCN)NC(=O)CN)[C@@H](C)O)C(=O)N[C@@H](C)C(=O)N[C@@H](CCCCN)C(=O)N[C@@H](CCC(=O)O)C(=O)N[C@H](C(=O)N[C@@H](C)C(=O)N[C@@H](CCCCN)C(=O)N[C@@H](CCC(N)=O)C(=O)NCC(=O)N[C@@H](C)C(=O)N[C@@H](CCCCN)C(=O)N[C@@H](Cc1ccccc1)C(=O)N[C@@H](C)C(=O)O)C(C)C [Peptide 77] (H-GKKLAKTIAKEVAKQGAKFA-OH)
MIC B. cereus (B. cereus): + (key: +: MIC greater than 256 ug/mL; ++: MIC greater than 128 ug/mL, not sufficiently soluble to test as 256 ug/mL)
MIC E. coli (Escherichia coli; [1]): 64 µg/mL (≈ 30.7 µM)

Molecule: AATGTGKTAAFALPVLERLI [Peptide 38]
MIC B. cereus (B. cereus; [1]): + (MIC greater than 256 ug/mL)
MIC E. coli (Escherichia coli; [1]): + (MIC greater than 256 ug/mL)

Molecule: ALFSLASKVVPSVFSMVTKK [Peptide 1]
MIC B. cereus (B. cereus; [1]): + (MIC greater than 256 ug/mL)
MIC E. coli (Escherichia coli; [1]): + (MIC greater than 256 ug/mL)

Molecule: FKVVISKPGLSVRVGTALVT [Shuffled 65]
MIC B. cereus (B. cereus; [1]): ++ (MIC greater than 128 ug/mL, not sufficiently soluble to test as 256 ug/mL)
MIC E. coli (Escherichia coli; [1]): ++ (MIC greater than 128 ug/mL, not sufficiently soluble to test as 256 ug/mL)

The next lines start with the values.

MIC B. cereus (B. cereus; [1]): + (MIC greater than 256 ug/mL)
MIC E. coli (Escherichia coli; 24 h): 256 µg/mL (≈ 120 µM)
Molecule: CC[C@H](C)[C@H](NC(=O)[C@H](CCSC)NC(=O)[C@H](CO)NC(=O)[C@@H](NC(=O)[C@H](CC(C)C)NC(=O)[C@H](CO)NC(=O)[C@@H]1CCCN1C(=O)[C@@H](NC(=O)[C@@H](NC(=O)[C@H](CCCCN)NC(=O)[C@H](CO)NC(=O)[C@H](C)NC(=O)[C@@H](NC(=O)[C@H](CCCNC(=N)N)NC(=O)CNC(=O)[C@@H](NC(=O)[C@H](Cc1ccccc1)NC(=O)[C@H](CO)NC(=O)[C@@H](N)CC(C)C)C(C)C)C(C)C)C(C)C)C(C)C)[C@@H](C)CC)C(=O)N[C@@H](CCCCN)C(=O)O [Peptide 55] (H-LSFVGRVASKVVPSLISMIK-OH; N-terminus and C-terminus assumed)

MIC B. cereus (B. cereus; [1]): + (MIC greater than 256 ug/mL)
MIC E. coli (Escherichia coli; 24 h): 128 µg/mL (≈ 59.8 µM)
Molecule: CC(C)C[C@H](NC(=O)[C@H](CCCCN)NC(=O)[C@H](Cc1ccccc1)NC(=O)[C@@H](NC(=O)[C@H](C)NC(=O)[C@@H]1CCCN1C(=O)[C@@H](N)CC(C)C)C(C)C)C(=O)N[C@@H](C)C(=O)N[C@@H](CO)C(=O)N[C@@H](CCCCN)C(=O)N[C@H](C(=O)N[C@@H](Cc1ccccc1)C(=O)N1CCC[C@H]1C(=O)N[C@@H](C)C(=O)N[C@H](C(=O)N[C@@H](Cc1ccc(O)cc1)C(=O)N[C@@H](CS)C(=O)N[C@@H](CCCCN)C(=O)N[C@@H](C)C(=O)N[C@@H](CO)C(=O)O)C(C)C)C(C)C [Peptide 62] (H-LPAVFKLASKVFPAVYCKAS-OH; N-terminus and C-terminus assumed)

MIC B. cereus (B. cereus; [1]): + (MIC greater than 256 ug/mL)
MIC E. coli (Escherichia coli; 24 h): 256 µg/mL (≈ 116 µM)
Molecule: CC[C@H](C)[C@H](NC(=O)[C@@H](NC(=O)[C@H](CS)NC(=O)[C@H](Cc1ccc(O)cc1)NC(=O)[C@@H](NC(=O)[C@H](CO)NC(=O)[C@@H]1CCCN1C(=O)[C@@H](NC(=O)[C@@H](NC(=O)[C@H](CCCCN)NC(=O)[C@H](CO)NC(=O)[C@H](C)NC(=O)[C@H](CC(C)C)NC(=O)[C@H](CCCCN)NC(=O)[C@H](Cc1ccccc1)NC(=O)[C@@H](NC(=O)[C@@H](N)C(C)C)C(C)C)C(C)C)C(C)C)C(C)C)[C@@H](C)O)C(=O)N[C@H](C(=O)N[C@@H](CCCCN)C(=O)N[C@@H](CCCCN)C(=O)O)[C@@H](C)O [Peptide 88] (H-VVFKLASKVVPSVYCTITKK-OH; N-terminus and C-terminus assumed)

MIC B. cereus (B. cereus; 24 h): 256 µg/mL (≈ 127 µM)
MIC E. coli (Escherichia coli; [1]): + (MIC greater than 256 ug/mL)
Molecule: CC[C@H](C)[C@H](NC(=O)[C@H](CC(C)C)NC(=O)CNC(=O)[C@@H](NC(=O)[C@@H](NC(=O)[C@H](C)NC(=O)[C@@H]1CCCN1C(=O)[C@@H](NC(=O)[C@@H](NC(=O)[C@H](CCCCN)NC(=O)[C@H](CO)NC(=O)[C@H](C)NC(=O)[C@H](CC(C)C)NC(=O)[C@H](CO)NC(=O)[C@H](Cc1ccccc1)NC(=O)[C@H](CC(C)C)NC(=O)[C@H](C)NC(=O)CN)C(C)C)C(C)C)C(C)C)[C@@H](C)CC)C(=O)N[C@@H](CCCCN)C(=O)N[C@@H](CCCCN)C(=O)O [Peptide 96] (H-GALFSLASKVVPAVIGLIKK-OH; N-terminus and C-terminus assumed)

MIC B. cereus (B. cereus; 24 h): 32 µg/mL (≈ 15.2 µM)
MIC E. coli (Escherichia coli; 24 h): 64 µg/mL (≈ 30.4 µM)
Molecule: CC[C@H](C)[C@H](NC(=O)[C@H](CCSC)NC(=O)[C@H](C)NC(=O)[C@@H]1CCCN1C(=O)[C@@H](NC(=O)[C@@H](NC(=O)[C@H](CCCCN)NC(=O)[C@@H](NC(=O)[C@H](CC(C)C)NC(=O)CNC(=O)CNC(=O)[C@H](CC(C)C)NC(=O)[C@@H](N)Cc1ccccc1)[C@@H](C)CC)[C@@H](C)CC)C(C)C)C(=O)N[C@@H](CS)C(=O)N[C@@H](C)C(=O)N[C@H](C(=O)N[C@H](C(=O)N[C@@H](CCCCN)C(=O)N[C@@H](CCCCN)C(=O)N[C@@H](CS)C(=O)O)[C@@H](C)O)C(C)C [Ranalexin] (H-FLGGLIKIVPAMICAVTKKC-OH; N-terminus and C-terminus assumed)

MIC B. cereus (B. cereus; [1]): + (MIC greater than 256 ug/mL)
MIC E. coli (Escherichia coli; [1]): + (MIC greater than 256 ug/mL)
Molecule: AKKAQKSGAQTIVKIFAKGM [Shuffled 39]

MIC B. cereus (B. cereus; [1]): + (MIC greater than 256 ug/mL)
MIC E. coli (Escherichia coli; [1]): + (MIC greater than 256 ug/mL)
Molecule: ALVYAGIKKTAFLKVQKCDG [Shuffled 33]

MIC B. cereus (B. cereus; [1]): + (MIC greater than 256 ug/mL)
MIC E. coli (Escherichia coli; [1]): + (MIC greater than 256 ug/mL)
Molecule: FLPFVGRIASKVVPSVIGKV [Peptide 75]

MIC B. cereus (B. cereus; [1]): + (MIC greater than 256 ug/mL)
MIC E. coli (Escherichia coli; [1]): + (MIC greater than 256 ug/mL)
Molecule: FMKVLAVFGSVVTSAPKASK [Shuffled 31]

MIC B. cereus (B. cereus; [1]): + (MIC greater than 256 ug/mL)
MIC E. coli (Escherichia coli; [1]): + (MIC greater than 256 ug/mL)
Molecule: FVGGVASKVVPSVYCKVSKK [Peptide 85]
